Laboratory results published in patent US20150315211A1, “SMALL MOLECULES FOR THE MODULATION OF MCL-1 AND METHODS OF MODULATING CELL DEATH, CELL DIVISION, CELL DIFFERENTIATION AND METHODS OF TREATING DISORDERS” (priority 2010, published 2015).
Where two headings read alike, the source gives them in different places.

Experiments:
MCL-1ΔNΔC [1] = assay: High-throughput competitive FP binding screen, FITC-MCL-1 SAHB/MCL-1ΔNΔC interaction
BCL-XLΔC = BCL-XLΔC (Homo sapiens, UniProt Q07817); assay: High-throughput competitive FP binding screen, FITC-BAD BH3/BCL-XLΔC interaction
Chain of BCL-XLΔC (Q07817 1-212 limits assumed, stated change not applied): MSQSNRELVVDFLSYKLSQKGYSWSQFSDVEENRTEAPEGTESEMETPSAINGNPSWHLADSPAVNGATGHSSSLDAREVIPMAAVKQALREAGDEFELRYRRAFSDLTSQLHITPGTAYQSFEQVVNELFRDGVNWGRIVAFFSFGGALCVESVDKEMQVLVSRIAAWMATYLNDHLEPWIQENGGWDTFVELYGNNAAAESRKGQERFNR

MCL-1ΔNΔC [2] = molecular target: MCL-1ΔNΔC (Homo sapiens, UniProt Q07820); assay: High-throughput competitive FP binding screen, FITC-MCL-1 SAHB/MCL-1ΔNΔC interaction; parameters: the C-terminal alpha-helix was deleted from each of these constructs; GST (N, cleaved yes); made in house
Chain of MCL-1ΔNΔC (Homo sapiens, UniProt Q07820) (Q07820 172-320 limits assumed, stated change not applied): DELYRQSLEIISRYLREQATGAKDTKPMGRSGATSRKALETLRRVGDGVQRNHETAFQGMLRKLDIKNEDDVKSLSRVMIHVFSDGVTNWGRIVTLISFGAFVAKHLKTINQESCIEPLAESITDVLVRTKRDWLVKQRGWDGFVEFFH

[3] = selectivity for MCL-1ΔNΔC over BCL-XLΔC targeting (BCL-XL % Bound minus MCL-1 % Bound)
[4] = FITC-BAD BH3/BCL-XLΔC interaction pair, competitive FP screen
[5] = FITC-MCL-1 SAHB/MCL-1ΔNΔC interaction pair, competitive FP screen

Row | Compound | Spec Values (MCL-1ΔNΔC [1]; [3]) | BCL-XL % Bound (BCL-XLΔC; [4]) [%] | MCL-1% Bound (MCL-1ΔNΔC [2]; [5]) [%] | Spec Values (MCL-1ΔNΔC [1]) | BCL-XL % Bound (BCL-XLΔC) [%] | MCL-1% Bound (MCL-1ΔNΔC [2]) [%]
1 | CC1=C(C#N)C(=O)N=C(O)/C1=C\c1ccc(-c2ccc(S(N)(=O)=O)cc2)o1 [drawing 84] | 76.4 | 98.2 | 21.8 | – | – | –
2 | CCSC1=C(C#N)C(=O)NC(c2ccc(N(C)C)cc2)S1 (stereo not drawn) | 49.2 | 79.68 | 30.49 | – | – | –
3 | CSc1sc(C(=O)/C=C/N(C)C)c(-c2cccs2)c1C#N | 50.48 | 30.42 | −20.06 | – | – | –
4 | N#C/C(=C/C=C/c1ccc(-c2cc(Cl)ccc2Cl)o1)C(N)=S | 60.96 | 79.39 | 18.44 | – | – | –
5 | CC1CCC[SH](c2cc(O)ccc2O)C1 (stereo not drawn) | 53.57 | 94.72 | 41.16 | – | – | –
6 | Cc1ccccc1C=C1C(=O)N(C)C(=S)N(C)C1=O | – | – | – | 48.03 | 99.22 | 51.19
7 | CS(=O)(=O)CS(=O)(=O)NNc1ncc(C(F)(F)F)cc1Cl | 63.45 | 104.7 | 41.29 | – | – | –
8 | Cc1ccc(C)n1Cc1ccc(C(=O)O)cc1 | 54.85 | 91.45 | 36.6 | – | – | –
9 | O=c1oc2cc(Cl)c(O)c(Cl)c2s1 | 109.9 | 104.7 | −5.219 | – | – | –
10 | Cc1oc(-c2cccc(C(F)(F)F)c2)cc1C(=O)O | 48.68 | 81.9 | 33.22 | – | – | –
11 | CCOc1ccc2c(c1)C(C)=CC(C)(C)N2C(=O)CSc1nnc(C2CC2)n1C | 55.24 | 95.37 | 40.13 | – | – | –
12 | Oc1c(Cl)cc(Cl)c(Cl)c1Cc1c(O)c(Cl)cc(Cl)c1Cl [drawing 23] | – | – | – | 59.35 | 100.4 | 41.01
13 | O=C(OCC1O[C@H](OC(=O)c2cc(O)c(O)c(OC(=O)c3cc(O)c(O)c(O)c3)c2)[C@H](OC(=O)c2cc(O)c(O)c(OC(=O)c3cc(O)c(O)c(O)c3)c2)[C@@H](OC(=O)c2cc(O)c(O)c(OC(=O)c3cc(O)c(O)c(O)c3)c2)[C@@H]1OC(=O)c1cc(O)c(O)c(OC(=O)c2cc(O)c(O)c(O)c2)c1)c1cc(O)c(O)c(OC(=O)c2cc(O)c(O)c(O)c2)c1 (stereo partly drawn) [Tannic Acid, reference compound] | 82.32 | 98.26 | 15.94 | – | – | –
14 | COC(=O)c1c(N)sc2c1Cc1ccccc1C2 | 45.24 | 92.93 | 47.69 | – | – | –
15 | CC1=C(C#N)C(=O)N(C)C(=O)/C1=C/c1ccc(-c2cccc(Cl)c2C)o1 | 82.88 | 86.24 | 3.369 | – | – | –
16 | O=C(/C=C/c1ccc(Br)o1)OCC(=O)c1c[nH]c2ccccc12 | 52.14 | 105.6 | 53.49 | – | – | –
17 | Cc1ccc(/C=C2\C(=O)N(c3ccccc3)c3ccccc32)o1 | 47.36 | 110.1 | 62.72 | – | – | –
18 | Oc1ccc(/C=N/NC(=S)Nc2ccc(Cl)cc2Cl)c(O)c1O | 98.23 | 87.36 | −10.87 | – | – | –
19 | Cc1ccccc1OCC1=NN2C(=N)/C(=C\c3ccc(SCc4ccco4)o3)C(=O)N=C2S1 | 54.65 | 73.83 | 19.18 | – | – | –
20 | O=C(/C=C/c1ccco1)Nc1cccc(-c2nc3ccccc3o2)c1 | 45.91 | 112 | 66.09 | – | – | –

Row | Compound | Spec Values (MCL-1ΔNΔC [1]; [3]) | BCL-XL % Bound (BCL-XLΔC; [4]) [%] | MCL-1% Bound (MCL-1ΔNΔC [2]; [5]) [%] | Spec Values (MCL-1ΔNΔC [1]) | BCL-XL % Bound (BCL-XLΔC) [%] | MCL-1% Bound (MCL-1ΔNΔC [2]) [%]
21 | O=C(NN1C(=O)S/C(=C/C=C/c2ccco2)C1=O)c1ccccc1O | 76.1 | 95.8 | 19.8 | – | – | –
22 | CCn1c(-c2ccccc2)cnc1S | 51.73 | 105.8 | 54.03 | – | – | –
23 | COc1ccc(-c2nc3scc(CCNC(=O)/C=C/c4ccco4)n3n2)cc1 | 46.24 | 86.75 | 40.51 | – | – | –
24 | CC(C)c1ccc(C2=CC(=O)C=CC2=O)cc1 | 82.58 | 89.1 | 6.516 | – | – | –
25 | CCCCCOc1ccc(C(=O)/C=C/C(=O)O)cc1 | 53.61 | 97.46 | 43.85 | – | – | –
26 | COc1ccc(C(=O)COC(=O)c2c3c(nc4ccccc24)CCN(C)C3)cc1 | 119.7 | 88.79 | −30.96 | – | – | –
27 | CC1=C(C#N)C(=O)N(CC(C)O)C(=O)/C1=C/c1ccc(-c2ccc(Cl)cc2)o1 (stereo not drawn) | 74.32 | 89.37 | 15.04 | – | – | –
28 | N#C/C(=C\c1ccc(O)c(O)c1)C(N)=S [drawing 231] | – | – | – | 66.21 | 100.8 | 34.55
29 | O=c1cc(-c2ccccc2)oc2cc(O)c(O)c(O)c12 [drawing 19] | 93.84 | 104.2 | 10.32 | – | – | –
30 | Cc1ccc(CCNC(=O)c2ccc3nc(-c4ccco4)c(-c4ccco4)nc3c2)cc1 | 64.01 | 99.74 | 35.73 | – | – | –
31 | COC(=O)c1ccc(-c2ccc(/C=C3/C(=O)N(C)C(=O)C(C#N)=C3C)o2)cc1 | 52.77 | 91.59 | 38.82 | – | – | –
32 | O=c1c(O)c(-c2ccc(O)c(O)c2)oc2cc(O)cc(O)c12 [drawing 172] | 83.25 | 92.49 | 9.24 | – | – | –
33 | C/C(=N\OCc1ccc(C(=O)N2CCCCC2)o1)c1cccc(C(F)(F)F)c1 | 55.34 | 110.8 | 55.48 | – | – | –
34 | Cc1cccc(C(=O)Oc2ccc3oc(=O)sc3c2)c1 | 47.88 | 92.24 | 44.36 | – | – | –
35 | COC(=O)c1c(NC(=O)C2CC2)sc(C)c1C | 47.29 | 101 | 53.71 | – | – | –
36 | COc1cc2c(O)c3c(c(-c4ccc5c(c4)OCO5)c2cc1OC)C(=O)OC3 | 66.63 | 104.6 | 37.92 | – | – | –
37 | Cc1cc2c(C(C)C)c(O)c(O)c(C=O)c2c(O)c1-c1c(C)cc2c(C(C)C)c(O)c(O)c(C=O)c2c1O.[Na+].[Na+] | – | – | – | 97.07 | 101 | 3.955
38 | CC1=C(C#N)C(O)=NC(=O)/C1=C/c1ccc(-c2cccc(C(=O)O)c2)o1 | 52.9 | 89.7 | 36.81 | – | – | –
39 | COc1ccc(-n2nc3cc(C)c(N)c(Br)c3n2)cc1 | 51.41 | 83.97 | 32.56 | – | – | –
40 | Oc1cccc(C(c2ccc3cccnc3c2O)N2CCCC2)c1 (stereo not drawn) | 62.71 | 106.4 | 43.7 | – | – | –

Row | Compound | Spec Values (MCL-1ΔNΔC [1]; [3]) | BCL-XL % Bound (BCL-XLΔC; [4]) [%] | MCL-1% Bound (MCL-1ΔNΔC [2]; [5]) [%] | Spec Values (MCL-1ΔNΔC [1]) | BCL-XL % Bound (BCL-XLΔC) [%] | MCL-1% Bound (MCL-1ΔNΔC [2]) [%]
41 | CC1(C)CC(=O)C2=C(C1)Nc1ccc3ncccc3c1C2c1ccc(O)c(O)c1 (stereo not drawn) | 47.01 | 95.33 | 48.32 | – | – | –
42 | CC1=C(C#N)C(=O)N=C(O)/C1=C\c1ccc(-c2ccc(S(N)(=O)=O)cc2)o1 [drawing 191] | 76.4 | 98.2 | 21.8 | – | – | –
43 | c1coc(C2Nc3cccc4cccc(c34)N2)c1 | 57.32 | 106.3 | 48.94 | – | – | –
44 | O=C1CSCC(=O)N1c1csc(C(F)(F)F)c1-c1ccccc1 | 74.8 | 96.35 | 21.55 | – | – | –
45 | Oc1cccnc1NC(c1ccc(F)cc1)c1ccc2cccnc2c1O (stereo not drawn) | 71.24 | 113.7 | 42.49 | – | – | –
46 | CC1CCN(C2=NN3C(=N)/C(=C\c4ccc(SCc5ccco5)o4)C(=O)N=C3S2)CC1 | 70.38 | 84.68 | 14.3 | – | – | –
47 | O=C1c2ccccc2CCC1Sc1nnc(-c2ccncc2)o1 (stereo not drawn) | 45.54 | 88.38 | 42.84 | – | – | –
48 | CCN(CC)c1cc(C)c2cc(NC(=O)/C=C/c3ccco3)ccc2n1 | 68.15 | 79.88 | 11.73 | – | – | –
49 | Cc1ccc2n1CCn1cc(-c3ccc(Br)cc3)cc1-2 | 55.6 | 99.37 | 43.77 | – | – | –
50 | O=C(O)C(Cc1ccccc1)N1C(=O)/C(=C\c2ccco2)SC1=S (stereo not drawn) | 68.92 | 90.21 | 21.29 | – | – | –
51 | CCCCSC1=C(C#N)C(=O)NC(c2ccc(OC)cc2)S1 (stereo not drawn) | 74.73 | 99.33 | 24.59 | – | – | –
52 | O=C(O)c1cccc(-c2ccc(/C=C3\Sc4ccccc4C3=O)o2)c1 | 64.25 | 95.42 | 31.17 | – | – | –
53 | O=C(/C=C/c1ccco1)NCc1ccccc1 | 45.66 | 101.8 | 56.1 | – | – | –
54 | CCCOc1nc2c(c(-c3ccco3)c1C#N)CCCC2 | 52.96 | 83.67 | 30.71 | – | – | –
55 | Oc1ccc2cc3c4cc(Br)ccc4nc-3oc2c1O | 76.69 | 90.07 | 13.37 | – | – | –
56 | CC1=C/C(=N\Nc2ccccc2Cl)CC1 | 64.61 | 99.01 | 34.4 | – | – | –
57 | N#C/C(=C/c1cn(Cc2ccc(C(=O)O)o2)c2ccccc12)c1ccc(F)cc1 | 60.36 | 65.03 | 4.673 | – | – | –
58 | NC1=C(c2nc3ccccc3s2)CC(=O)N1CCc1ccccc1 | 52.91 | 108.5 | 55.57 | – | – | –
